The source of these data is PubChem BioAssay (NCI).

Assay in all cases: NCI anticancer screen, dose series, 48 h
The test system of experiment [1] is NCI-H522 lung.
Experiment [2] relates to NCI-H460 lung.
For experiment [3], the system named is SW-620 colon.
Experiment [4] concerns NCI-H226 lung.
Experiment [5] concerns HOP-92 NSCLC.
Experiment [6] relates to 786-0 renal.
Experiment [7] deals with OVCAR-3 ovarian.
Experiment [8] has as its system NCI-H23 lung.
In experiment [9] the test system is DU-145 prostate.
Experiment [10] deals with SF-539 CNS.

Each structure is given as a SMILES string.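 Assay format: 96-well plates, 48-hour exposure. GI50 is the concentration that inhibits growth by half. TGI denotes the concentration required for complete inhibition of growth.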

Regarding `COc1cc2nccc(Oc3ccc(NC(=O)c4cn(C(C)C)c(=O)n(-c5ccc(F)cc5)c4=O)cc3F)c2cc1OC`, the GI50 in [1] is greater than 22.5 µM; in experiment [2] it was 4.98 µM; in experiment [3], 5.77 µM; in [4], 6.76 µM; in [5], 0.347 µM; in [6], greater than 100 µM. Further, the GI50 in experiment [7] was greater than 41.4 µM; in experiment [8] it was greater than 100 µM; in experiment [9], greater than 100 µM; in experiment [10], 1.6 µM. Further, the TGI in [1] was greater than 100 µM; in experiment [2], greater than 100 µM; in [3], greater than 100 µM; in experiment [4], greater than 21.8 µM; in experiment [5], greater than 100 µM; in experiment [6], greater than 100 µM. Besides, the TGI in [7] is greater than 100 µM; in experiment [8] it was greater than 100 µM; in [9] it was greater than 100 µM; in experiment [10], 3.38 µM.
Take `N#Cc1cc(S(=O)(=O)Nc2nc3ccccc3o2)c(SCc2ccccc2)cc1Cl`: the GI50 in experiment [1] was 17 µM; in experiment [2], 21.5 µM; in experiment [3] it was 17.9 µM; in experiment [4], 31.6 µM; in [5], 17.4 µM; in experiment [6], 21.8 µM. Also, the GI50 in experiment [7] was 24.2 µM; in experiment [8], 26.1 µM; in experiment [9] it was 21 µM; in experiment [10], 17.9 µM. Further, the TGI in experiment [1] was 40.4 µM; in experiment [2], 56.1 µM; in experiment [3] it was 35.5 µM; in [4], 80.8 µM; in [5], 34.2 µM; in experiment [6], 45.2 µM. Moreover, the TGI in [7] amounted to 52.3 µM; in [8], 54.3 µM; in [9], 46.7 µM; in [10] it was 33.3 µM.
Regarding `O=C1N=C(Nc2nc(-c3csc(NC4=NC(=O)/C(=C\c5ccccc5)S4)n3)cs2)S/C1=C/c1ccccc1`, the GI50 in [1] is 38.5 µM; in experiment [2], 12.8 µM; in experiment [3] it was 31.7 µM; in experiment [4], 0.337 µM; in experiment [5] it was 4.37 µM; in [6], 9.54 µM. Moreover, the GI50 is 20.8 µM in experiment [7], 17.6 µM in experiment [8], 16.8 µM in experiment [9] and 13.6 µM in experiment [10]. For the same molecule, the TGI in experiment [1] is greater than 50 µM; in experiment [2], greater than 50 µM; in experiment [3] it was greater than 50 µM; in experiment [4] it was 12.8 µM; in [5] it was 20.5 µM; in experiment [6], 34.9 µM. Further, the TGI in experiment [7] was greater than 50 µM; in experiment [8], greater than 50 µM; in [9] it was greater than 50 µM; in [10] it was 39.7 µM.
As to `COc1ccc2[nH]c(C(=O)OCc3ccc4c(Cl)cc(Cl)c(O)c4n3)cc2c1`, the GI50 in experiment [1] is 1.19 µM; in [2] it was 1.75 µM; in experiment [3] it was 0.814 µM; in experiment [4] it was 1.42 µM; in experiment [5] it was 0.456 µM; in experiment [6], 1.3 µM. For the same molecule, the GI50 in [7] was 0.513 µM; in [8], 1.57 µM; in [9] it was 1.33 µM; in [10], 1.25 µM. For the same molecule, the TGI in experiment [1] was 2.99 µM; in experiment [2], 3.45 µM; in experiment [3], 2.31 µM; in experiment [4], 3.07 µM; in experiment [5], 1.99 µM; in experiment [6] it was 2.6 µM. Further, the TGI in [7] is 1.83 µM; in [8] it was 3.37 µM; in experiment [9], 2.61 µM; in experiment [10], 2.5 µM.
Take `C/C=C(\C)C(=O)OC1/C=C(\C)CC/C=C(\C)CC2OC(=O)C(C)(OC(C)=O)C12` (centres undefined): the TGI in [1], in experiment [2], in experiment [3], in experiment [4], in experiment [5] and in [6] was greater than 100 µM in each case. The TGI in experiment [7], in experiment [8], in experiment [9] and in experiment [10] was greater than 100 µM throughout.
For the molecule `CC/C(=C/c1ccc(OC)cc1OC)[N+](=O)[O-]`, the GI50 in experiment [1] was 1.79 µM; in experiment [2], 2.71 µM; in experiment [3] it was 2.28 µM; in experiment [4] it was 2.28 µM; in experiment [5], 4.27 µM; in [6] it was 1.77 µM. Moreover, the GI50 in experiment [7] is 1.84 µM; in experiment [8] it was 4.51 µM; in [9], 3.61 µM; in [10], 2.27 µM. In addition, the TGI in experiment [1] was 3.58 µM; in [2], 7.56 µM; in experiment [3], 4.93 µM; in [4], 4.73 µM; in experiment [5], 14.3 µM; in [6], 3.29 µM. Moreover, the TGI in experiment [7] turned out to be 3.38 µM; in [8] it was 20.1 µM; in experiment [9] it was 13.8 µM; in [10], 4.73 µM.
With `C=C1C(=O)O[C@H]2C[C@@H]1C(=O)CC(C)CCCC(C)=CCC[C@@]2(C)O` (some centres undefined), the TGI in experiment [1], in experiment [2], in experiment [3], in [4], in experiment [5] and in [6] was greater than 25 µM in each case. In addition, the TGI in experiment [7], in experiment [8], in experiment [9] and in experiment [10] was greater than 25 µM throughout.
As to `O=c1[nH]c(=O)n(C2CC(O)C(CO)O2)cc1C(F)(F)F` (centres undefined), the GI50 in experiment [1] was 18.3 µM; in experiment [2], 0.337 µM; in [3], 9.78 µM; in [4], 20.7 µM; in experiment [5], greater than 100 µM; in [6], 0.464 µM. For the same molecule, the GI50 was greater than 77.4 µM in experiment [7], 1.95 µM in experiment [8], 2.85 µM in experiment [9] and 0.456 µM in experiment [10]. The TGI in experiment [1], in experiment [2], in experiment [3], in experiment [4], in experiment [5] and in experiment [7] was greater than 100 µM each time. The TGI was greater than 100 µM in experiment [8], greater than 100 µM in [9] and 7.21 µM in experiment [10].
